Experimental data as given in US20240197712A1, “TGF-BETA INHIBITION FOR IMMUNODEFICIENCY VIRUS REACTIVATION FROM LATENCY, ENHANCEMENT OF IMMUNODEFICIENCY VIRUS-SPECIFIC RESPONSES AND IMMUNODEFICIENCY VIRUS CURE” (Northwestern University, priority 2022, published 2024).

Assays:
ACH-2 cells = experiment: PMA-induced HIV reactivation in ACH-2 cells, intracellular p24 staining; format: cell-based
Experimental: ACH2 cells and U1 cells were obtained through the NIH HIV Reagent Program, Division of AIDS, NIAID, NIH (contributed by Dr. Thomas Folks). […] In the HIV latency reactivation conditions, PMA (Phorbol 12-myristate 13-acetate, SigmaAldrich) was added at 100 ng/ml together with galunisertib or TGF-β1. After 18 hrs, cells were stained intracellularly for p24 using the KC57 antibody (NIH HIV Reagent Program) as previously described (74).

[1] = system: PBMC from aviremic, ART-treated PLWH; experiment: Modified quantitative viral outgrowth assay (qVOA) with LRA; format: cell-based, human
Excerpt: Considering that TGF-β is present in FBS, used to supplement PBMC and T cell cultures, and that PBMC from people living with HIV-1 release TGF-β in culture supernatants (56-58), we hypothesized that blocking TGF-β while reversing HIV-1 latency ex vivo from PBMC of ART-treated, aviremic individuals may lead to higher frequency of HIV-1 reactivation than in untreated cultures. To test this hypothesis, we used a modified version of the classical quantitative viral outgrowth assay (qVOA) (59). We used whole PBMC to assess potential latency reactivation from any HIV-1-infected circulating cell and not only from resting CD4+ T cells (FIG. 6A). PBMC from two different sets of aviremic, ART-treated donors (Table 1) were activated with PMA (at 100 ng/ml or 10 ng/ml) and with Vorinostat (SAHA, at 1 μM) in presence of T20 and galunisertib (1 μM) or mock solution. […] Infectious unit per million cells (IUPM) were calculated based on the number of infected wells as determined by p24 ELISA (FIG. 6A). […]
PBMC were thawed and cultured in RPMI 10% FBS at 3×10^6/ml. […] 50 μl of supernatant was collected after 7, 14 and 21 days of co-culture and monitored for p24 presence by p24 ELISA (PerkinElmer). IUPM were calculated based on the number of positive wells using the IUPM calculator provided by Dr. Siliciano (76). […]

[2] = Plasma cytokines and chemokines (MSD 24-plex); format: in vivo, rhesus macaques
Experimental: (§1) Cytokines in plasma (at 1:2 dilution) were measured using the NHP Cytokine 24-Plex kit by Meso Scale Diagnostics (MSD) according to manufacturer instructions. Frozen PBMC collected at week 6 post-infection (pre-ART), right before the first galunisertib administration (BC1), at the end of cycle 1 (AC1) and at the end of cycle 3 (AC3) were thawed in AIM V medium (ThermoFisher) with benzonase (Sigma) and plated on a FluoroSpot (CTL) plate pre-activated with 70% Ethanol and IFN-γ, TNF-α and IL-2 capture solution. Gag, pol, and env 15-mer peptides (NIH AIDS Reagents program) were prepared at two times the final concentration of 2.5 μg/ml with co-stimulatory reagents anti-CD28 10 μg/ml and anti-CD49d 10 μg/ml and added to the cells in CTL-Test™ Medium. Parallel positive […] control of PMA (20 ng/ml) and ionomycin (200 ng/mL) or mock DMSO solution was also plated with the stimulatory reagents. PBMCs were added at 300,000 cells per well. After 24 hrs, the plate was washed, and incubated with detection and tertiary solutions and shipped to CTL for scanning and QC.

SIVmac251 or SIVmac239 = experiment: Plasma viral load, SIV-infected ART-treated macaques, 1-2 weeks galunisertib; format: in vivo, rhesus macaques
Experimental: Rhesus macaques (n=7) were infected with SIVmac251 or SIVmac239 rectally or intravenously (FIG. 9) and ART (Tenofovir [PMPA], Emtricitabine [FTC] and Dolutegravir [DTG]) was initiated between week 12 and 17 post infection. Galunisertib treatment was initiated after 26 or 27 weeks on ART for 7 or 14 days. Galunisertib powder (MedChemExpress—MCE, NJ, USA) was dissolved in water and given orally in a treat twice daily at 5 mg/kg or 10 mg/kg (FIG. 9). Blood viral load was monitored biweekly before and during cART and every 3-4 days during 438 Galunisertib treatment. Colorectal biopsies and LN FNA were collected before and after galunisertib treatment.
Blood was collected in EDTA tubes and plasma was separated by density gradient centrifugation and used for the determination of plasma VL by SIVgag qRT-PCR at NIRC or at Leidos (Quantitative Molecular Diagnostics Core, AIDS and Cancer Virus Program Frederick National Laboratory). Tissue VL from snap frozen colorectal biopsies and LN FNA were performed at Leidos (A14X004, A14X005 and A14X013) as described in (78) or, for the remaining macaques and from PBMC of all macaques they were performed as described in (77).

[3] = system: SIVmac239 gag, pol and env peptides; experiment: SIV-specific responses, FluoroSpot of PBMC; format: in vivo, rhesus macaques
Experimental: as §1

Compound: Cc1cccc(-c2nn3c(c2-c2ccnc4ccc(C(N)=O)cc24)CCC3)n1 [galunisertib, Galunisertib]
- frequency of p24-gag+ cells in TGF-β1-treated cultures (ACH-2 cells; ACH-2 cells, TGF-β1 + galunisertib 1 μM): restore frequency of p24-gag+ cells
- frequency of p24-gag+ cells versus PMA-stimulated cultures (ACH-2 cells; ACH-2 cells, galunisertib in absence of exogenous TGF-β1, medium with FBS): increase it above PMA-stimulated cultures
- effect on p24+ cells in X-Vivo 15 medium without FBS (ACH-2 cells; control experiments, U1 and ACH-2, no FBS): absent
- frequency of latency reactivation events (IUPM) ([1]; galunisertib 1 μM vs mock, PMA 100 or 10 ng/ml or Vorinostat 1 μM): significantly higher frequency
- vRNA in supernatant after PMA stimulation ([1]; galunisertib-treated PBMC vs mock treated): higher levels of vRNA
- concentrations of inflammatory chemokines and cytokines in plasma ([2]; before and after first 2 cycles and end of last cycle): no changes
- IL-10 in plasma ([2]; end of the last cycle vs before treatment): small increase
- macaques with increase in pVL over 100 copies/ml (SIVmac251 or SIVmac239; 5 or 10 mg/kg orally twice per day, 1 or 2 weeks): 2 of the 7
- increase in pVL in macaque not continuously suppressed before treatment (SIVmac251 or SIVmac239; single macaque (A14X)): > 2 Log
- IL-2 release ([3]; end of 3rd cycle): remained unchanged
- IFN-γ secretion, SIV-specific and non-specific ([3]; end of the 3rd cycle vs BC1): significant increase
- TNF-α release ([3]; in response to Gag and non-specifically): increased
